{
  "source": "patent US11453640B2",
  "about": "“Small molecules for disrupting the super elongation complex and inhibiting transcription elongation for cancer therapy” (NORTHWESTERN UNIVERSITY, priority 2018, dated 2022)",
  "test_system": "Pol II",
  "assay": "Pol II ChIP-seq, promoter-proximal pausing in HEK293T cells",
  "assay_type": "cell-based, human",
  "experimental": "FIG. 2. Small molecule disruption of SEC increases promoter-proximal pausing. (A) SEC inhibitors increase Pol II occupancy near the transcription start sites (TSS) of the HSPA8 and SRSF4 genes. Pol II ChIP-seq was performed in HEK293T cells with 20 μM SEC inhibitors KL-1 and KL-2 for 6 hr. […] (B) Heatmap analysis of Pol II occupancy at SEC-occupied genes in cells treated with KL-1 and KL-2. SEC inhibition results in increased Pol II occupancy at promoter-proximal regions of genes occupied by SEC. Rows are sorted by Pol II occupancy in the DMSO condition and metaplots of Pol II occupancy are shown at the bottom. Corresponding AFF1 and AFF4 occupancy (rpm) in the vehicle-treated condition is shown. […] The pausing index is calculated based on the ratio of Pol II occupancy around the TSS to Pol II occupancy in the gene body. […]\nChromatin Immunoprecipitation Sequencing. […] ChIP-seq reads were aligned to the Drosophila genome (UCSC dm3) or human genome (UCSC hgl9). Alignments were processed with Bowtie version 1.1.2, allowing only uniquely mapping reads with up to two mismatches within the 50 bp read. The resulting reads were extended to 150 bp toward the interior of the sequenced fragment and normalized to total reads aligned (reads per million, r.p.m.). […] P-values were calculated with a two-sided Kolmogorov-Smirnov test. […]",
  "data": [
    {"smiles": "COc1cccc(C(=O)CC(=O)C(=O)Nc2cc(Cl)ccc2C)c1", "note": "[KL-1, N-(5-chloro-2-methylphenyl)-4-oxo-4-(3-methoxyphenyl)-2-oxobutanamide]", "values": [
      {"measurement": "promoter-proximal pausing (pausing index, ECDF)", "result": "could increase promoter-proximal pausing"},
      {"measurement": "Pol II occupancy at promoter-proximal regions", "setting": "20 μM, 6 hr, HSPA8 and SRSF4 loci", "result": "increased Pol II occupancy at the promoter-proximal regions"}
    ]}
  ]
}
